Drawing on EP4410284A1, “COMPOUND AND METHOD FOR THE TREATMENT OF ZELLWEGER SPECTRUM DISORDER” (Apteeus, priority 2023, dated 2024), this text covers plasmalogen levels for 1 molecule.

The test has as its system PEX405 cells. In words: Plasmalogens synthesis (LC-MS/MS). The test is classed as cell-based, human. The following applies: treatment over 3 days. The procedure:
The assay was performed in T75 culture flasks for 3 or 10 days. The medium was replaced by fresh medium every 2-3 days. After 3 or 10 days, the cells were harvested and lysated in water (100-200 µL) by freeze/thaw cycle and sonication for 5 min. Total proteins were quantified using BCA assay and 100 µg of total proteins were used for each sample.
After cell lysis, the samples were dried using a rotating evaporator (Genevac EZ-2, SP Scientific), set at 40°C for 2h under vacuum. Then a solution containing water/acetonitrile 20/80 v/v was added to the wells. Before analysis, the samples were centrifuged at 4000 rpm for 20 min at room temperature. For the separation of plasmalogens by liquid chromatography, a Waters Acquity ultra-performance liquid chromatography (UPLC) system (Acquity I-Class, Waters) was used. A Waters Acquity UPLC BEH (Ethylene Bridged Hybrid) C8 column (2.1 × 50mm, particle size 1.7 µm, pore size 130 A, 2.1mm inner diameter) preceded by a metal pre-filter (KrudKatcher Ultra HPLC In-Line Filter, AF0-8497, Phenomenex) was used for separation. The column temperature was maintained at 50°C. The injection volume was 5µL for each analysis. The mobile phase A was composed of water + 0.1% formic acid and the mobile phase B was methanol + 0.1% formic acid. The separation was done using a gradient, with a flow rate set at 0.7 mL/min throughout the separation:
During analysis, the samples were kept at 10°C, and 5 µL of each sample were injected. After separation by liquid chromatography, the analytes were subjected to MS/MS analysis using a Waters Xevo TQSmicro system (Waters). The analytes were ionized using positive electrospray ionization (positive ESI). The molecules were analyzed using MRM mode. The analyzed plasmalogens contained moieties with C16:0, C18:0, C18:1 at the sn-1 position and fatty acid of chain-length 18 to 24 with 1 to 6 unsaturations at the sn-2 position. […] The cellular levels of plasmalogens were calculated using the area of each plasmalogen divided by protein quantity. […] The acquired data were analyzed by the Waters MassLynx software.

Counter-ions that a name gives are not always drawn.

Take `CCN(CC)Cc1ccc2cc(COC(=O)Nc3ccc(C(=O)NO)cc3)ccc2c1` [Givinostat (hydrochloride monohydrate), Givinostat]: the plasmalogen levels entry is reported as “increased”.
